In patent US4880825A, “Mitomycin derivatives” (Kyowa Hakko Kogyo Kabushiki Kaisha, priority 1987, dated 1989):
Values after ≈ are worked out from the molar mass of the structure shown.

What was measured:
[1] = test system: Streptococcus faecalis ATCC 10541; test: Anti-bacterial activity, minimum inhibitory concentration by agar dilution method at pH 7.0 (SF); type: cell-based; conditions: Enterococcus faecalis, ATCC10541
Source text: (§1) In this table, the microorganisms are abbreviated as follows:
SF: Streptococcus faecalis ATCC 10541

[2] = test system: Staphylococcus aureus ATCC 6538P; test: Anti-bacterial activity, minimum inhibitory concentration by agar dilution method at pH 7.0 (SA); type: cell-based; conditions: ATCC6538P
Source text: as §1
SA: Staphylococcus aureus ATCC 6538P

[3] = test system: Proteus vulgaris ATCC 6897; test: Anti-bacterial activity, minimum inhibitory concentration by agar dilution method at pH 7.0 (PV); type: cell-based; conditions: ATCC6897
Source text: as §1
PV: Proteus vulgaris ATCC 6897

[4] = test system: Klebsiella pneumoniae ATCC 10031; test: Anti-bacterial activity, minimum inhibitory concentration by agar dilution method at pH 7.0 (KP); type: cell-based; conditions: ATCC10031
Source text: as §1
KP: Klebsiella pneumoniae ATCC 10031.

Leukemia P-388 = test: Effects upon Leukemia P-388 (survival of CDF1 mice implanted with P-388 cells); type: in vivo, mouse (CDF1); conditions: abdominally once; for ILS(%) (Increased Life Span): 24 h after implantation, CDF1 mice, 33 days, ratio to untreated control survival; for ILS* (ratio of ILS % of test compound to ILS % of mitomycin C): relative to mitomycin C as control under the same conditions
Protocol: P-388 ascites tumour was abdominally implanted into a mouse (DBA/2). 7 days after this, ascitic fluid was collected from the tumour-carrying mouse. The number of P-388 cells was counted to prepare a cell suspension containing 5×10^6 cells/ml using a sterilized physiological saline solution. 0.2 ml of the cell suspension containing 1×10^6cells was abdominally implanted into each mouse of CDF1 strain (body weight 20-25 g). […] The effect of the test compound was evaluated with reference to the ILS % (Increased Life Span) (the ratio of the average survival days of the test animals to the average survival days of the control group of untreated animals). The following Table 5 indicates ILS* (the ratio of ILS % obtained using each of the test compounds to the corresponding ILS % obtained using mitomycin C as control under the same conditions).

[5] = Acute toxicity (LD50, Behrens-Koerber method); conditions: mouse, in vivo, ip; ddy mice, abdominally administered once, 14 days observation
Protocol: From the death ratio of each test group of animals, acute toxicity (LD50) was calculated by the "Behrens-Koerber" method.

SMILES | MIC [1] [µg/mL] | MIC [2] [µg/mL] | MIC [3] [µg/mL] | MIC [4] [µg/mL] | ILS(%) (Increased Life Span) (Leukemia P-388; dose 2.5 mg/kg) | ILS* (ratio of ILS % of test compound to ILS % of mitomycin C) (Leukemia P-388; dose 2.5 mg/kg) | LD50 at 336 h [5] [mg/kg] | ILS(%) (Increased Life Span) (Leukemia P-388; dose 5 mg/kg) | ILS* (ratio of ILS % of test compound to ILS % of mitomycin C) (Leukemia P-388; dose 5 mg/kg) | ILS(%) (Increased Life Span) (Leukemia P-388; dose 1.56 mg/kg) | ILS* (ratio of ILS % of test compound to ILS % of mitomycin C) (Leukemia P-388; dose 1.56 mg/kg) | ILS(%) (Increased Life Span) (Leukemia P-388; dose 12.5 mg/kg) | ILS* (ratio of ILS % of test compound to ILS % of mitomycin C) (Leukemia P-388; dose 12.5 mg/kg) | ILS(%) (Increased Life Span) (Leukemia P-388; dose 0.39 mg/kg) | ILS* (ratio of ILS % of test compound to ILS % of mitomycin C) (Leukemia P-388; dose 0.39 mg/kg)
CO[C@@]12[C@H](COC(N)=O)C3=C(C(=O)C(C)C4(OCCO4)C3=O)N1C[C@H]1[C@@H]2N1C (stereo partly shown) [Compound 3, 7-demethoxy-6,7-dihydro-7-ethylenedioxymitomycin F] | 0.31 (≈ 0.788 µM) | 0.31 (≈ 0.788 µM) | 0.63 (≈ 1.6 µM) | 0.31 (≈ 0.788 µM) | 153 | 0.77 | 4.5 | – | – | – | – | – | – | – | –
CO[C@]12[C@@H]3[C@H](CN1C1=C(C(=O)C4(OCCO4)C(C)C1=O)[C@@H]2COC(N)=O)N3C (stereo partly shown) [Compound 4, 7-demethoxy-6,7-dihydro-7-ethylenedioxymitomycin J] | 0.31 (≈ 0.788 µM) | 0.63 (≈ 1.6 µM) | 0.63 (≈ 1.6 µM) | 0.31 (≈ 0.788 µM) | – | – | 6 | 180 | 1.16 | – | – | – | – | – | –
CO[C@@]12[C@H](COC(N)=O)C3=C(C(=O)C(C)(Cl)C4(OCCO4)C3=O)N1C[C@@H]1N[C@@H]12 (stereo partly shown) [Compound 8, 6-chloro-7-demethoxy-6,7-dihydro-7-ethylenedioxymitomycin A] | 1.3 (≈ 3.14 µM) | 0.039 (≈ 0.0942 µM) | 1.3 (≈ 3.14 µM) | 0.039 (≈ 0.0942 µM) | – | – | 3.75 | – | – | > 164 | > 0.93 | – | – | – | –
CN1[C@H]2[C@@H]1CN1C3=C(C(=O)C4(OCCO4)C(C)(Cl)C3=O)[C@H](COC(N)=O)[C@@]21O (stereo partly shown) [Compound 9, 6-chloro-7-demethoxy-6,7-dihydro-7-ethylenedioxymitomycin B] | 10 (≈ 24.2 µM) | > 40 | > 40 | 5 (≈ 12.1 µM) | – | – | 15 | – | – | – | – | 159 | 1.13 | – | –
CC1C(=O)C2=C(C(=O)C13OCCO3)[C@H](COC(N)=O)[C@@]1(O)[C@@H]3[C@H](CN21)N3C (stereo partly shown) [Compound 2, 7-demethoxy-6,7-dihydro-7-ethylenedioxymitomycin B] | 2.6 (≈ 6.85 µM) | 2.5 (≈ 6.59 µM) | 0.63 (≈ 1.66 µM) | 1.3 (≈ 3.43 µM) | – | – | 7.5 | 173 | 1.06 | – | – | – | – | – | –
CO[C@@]12[C@H](COC(N)=O)C3=C(C(=O)C(C)(Br)C4(OCCO4)C3=O)N1C[C@H]1[C@@H]2N1C (stereo partly shown) [Compound 10, 6-bromo-7-demethoxy-6,7-dihydro-7-ethylenedioxymitomycin F] | 2.5 (≈ 5.29 µM) | 0.63 (≈ 1.33 µM) | 5 (≈ 10.6 µM) | 5 (≈ 10.6 µM) | – | – | – | – | – | – | – | – | – | – | –
CO[C@@]12[C@H](COC(N)=O)C3=C(C(=O)C(C)C4(OCCO4)C3=O)N1C[C@@H]1N[C@@H]12 (stereo partly shown) [Compound 1, 7-demethoxy-6,7-dihydro-7-ethylenedioxymitomycin A] | 0.078 (≈ 0.206 µM) | 0.039 (≈ 0.103 µM) | 0.0098 (≈ 0.0258 µM) | 0.0049 (≈ 0.0129 µM) | – | – | 0.7 | – | – | – | – | – | – | 169 | 1.00
